Laboratory results published in ChEMBL document CHEMBL6074671, “Discovery of Pyridine-2-Carboxamides Derivatives as Potent and Selective HPK1 Inhibitors for the Treatment of Cancer” (J Med Chem, 2024).
Converted amounts (≈) assume the structure as drawn.

What was measured:
[1] = target: Mitogen-activated protein kinase kinase kinase kinase 2 (Homo sapiens, UniProt Q12851); assay: Inhibition of human recombinant full length GST tagged N-terminal MAP4K2 (1 to 820 end residues) expressed in insect Sf21 cells
in vivo [2] = settings: cynomolgus monkey, plasma, iv, 1 mg/kg
Description: Clearance in Cynomolgus monkey plasma at 1 mg/kg, iv

[3] = target: Mitogen-activated protein kinase kinase kinase kinase 5 (Homo sapiens, UniProt Q9Y4K4); assay: Inhibition of human GST-tagged full length recombinant MAP4K5 expressed in insect cells; set-up: species or system Insect cell
[4] = Half life in Sprague-Dawley rat at 10 mg/kg, po; assay type: ADME, organism-based; settings: in vivo
[5] = Effect on IL-2 secretion in human T cells by ELISA method; assay type: functional, cell-based; settings: T-cell
[6] = target: Serine/threonine-protein kinase PAK 1 (Homo sapiens, UniProt Q13153); assay: Inhibition of PAK1 (unknown origin)
[7] = dog, in vivo, po, 2 mg/kg
[8] = target: Interleukin-1 receptor-associated kinase 4 (Homo sapiens, UniProt Q9NWZ3); assay: Inhibition of IRAK4 (unknown origin)
[9] = Toxicity in C57BL/6 mouse implanted with mouse MC38 cells assessed as increase in survival at low dose, po BID measured after 12 days in presence of anti-PD-1; assay type: organism-based; settings: in vivo, 288 h, time 12 day
in vivo [10] = settings: cynomolgus monkey, iv, 1 mg/kg
Description: Volume of distribution in Cynomolgus monkey at 1 mg/kg, iv

[11] = target: Tyrosine-protein kinase Lck (Homo sapiens, UniProt P06239); assay: Inhibition of LCK (unknown origin)
[12] = Dose normalized AUC (0 to 24 hrs) in Balb/c mouse at 10 mg/kg, po; assay type: ADME, organism-based; settings: in vivo
[13] = Genotoxicity in […] WP2 uvrA incubated for 48 to 72 hrs in presence of S9 fraction by AMES test; assay type: toxicity, subcellular; settings: time 48-72 hrs
[14] = Solubility in compound in FassIF at pH 6.5 incubated for 24 hrs by HPLC-UV analysis; assay type: physicochemical
[15] = Plasma protein binding in mouse assessed as unbound fraction at 2 uM incubated for 4 hrs by LC-MS/MS analysis; assay type: ADME, cell-free
[16] = target: Serine/threonine-protein kinase 3 (Homo sapiens, UniProt Q13188); assay: Inhibition of MST2 (unknown origin)
[17] = Solubility in compound in FessIF at pH 5.0 incubated for 24 hrs by HPLC-UV analysis; assay type: physicochemical
[18] = Dose normalized AUC (0 to 24 hrs) in Sprague-Dawley rat at 10 mg/kg, po; assay type: ADME, organism-based; settings: in vivo
in vivo [19] = settings: Sprague-Dawley, rat, plasma, iv, 1 mg/kg
Description: Clearance in Sprague-Dawley rat plasma at 1 mg/kg, iv

[20] = Inhibition of pSLP76 in human PBMC cells incubated for 4 hrs by HTRF method; assay type: cell-based
CT26 [21] = assay: Antitumor activity against mouse CT26 cells implanted in Balb/c mouse model assessed as tumor growth inhibition at high dose administered as po BID measured after 15 days relative to control; assay type: functional; settings: time 15 day
[22] = target: Serine/threonine-protein kinase 4 (Homo sapiens, UniProt Q13043); assay: Inhibition of MST1 (unknown origin)
[23] = target: Tyrosine-protein kinase Blk (Homo sapiens, UniProt P51451); assay: Inhibition of BLK (unknown origin)
in vivo [24] = settings: Beagle, dog, plasma, iv, 1 mg/kg
Description: Clearance in Beagle dog plasma at 1 mg/kg, iv

[25] = Toxicity in C57BL/6 mouse implanted with mouse MC38 cells assessed as effect on body weight loss at high dose, po BID measured after 12 days in presence of anti-PD-1; assay type: organism-based; settings: in vivo, 288 h, time 12 day
[26] = Toxicity in C57BL/6 mouse implanted with mouse MC38 cells assessed as effect on body weight loss at low dose, po BID measured after 12 days in presence of anti-PD-1; assay type: organism-based; settings: in vivo, 288 h, time 12 day
CT26 [27] = assay: Antitumor activity against mouse CT26 cells implanted in Balb/c mouse model assessed as tumor growth inhibition administered as po dose BID measured after 15 days relative to control; assay type: functional; settings: time 15 day
[28] = target: Serine/threonine-protein kinase TAO2 (Homo sapiens, UniProt Q9UL54); assay: Inhibition of TAOK2 (unknown origin)
[29] = Toxicity in C57BL/6 mouse implanted with mouse MC38 cells assessed as increase in survival at high dose, po BID measured after 12 days; assay type: organism-based; settings: in vivo, 288 h, time 12 day
[30] = target: Tyrosine-protein kinase JAK3 (Homo sapiens, UniProt P52333); assay: Inhibition of JAK3 (unknown origin)
[31] = target: Tyrosine-protein kinase Lyn (Homo sapiens, UniProt P07948); assay: Inhibition of LYNa (unknown origin)
in vivo [32] = settings: Sprague-Dawley, rat, iv, 1 mg/kg
Description: Volume of distribution in Sprague-Dawley rat at 1 mg/kg, iv

[33] = target: Mitogen-activated protein kinase 14 (Homo sapiens, UniProt Q16539); assay: Inhibition of p38 alpha (unknown origin)
[34] = target: Tyrosine-protein kinase JAK2 (Homo sapiens, UniProt O60674); assay: Inhibition of JAK2 (unknown origin)
[35] = target: Mitogen-activated protein kinase kinase kinase kinase 1 (Homo sapiens, UniProt Q92918); assay: Inhibition of human recombinant wild type N-terminal HPK1 (1 to 346 residues) infected in insect Sf21 cells using fluorescein-PKC as substrate preincubated for 10 mins followed by substrate addition and measured after 90 mins by microplate reader based analysis; assay type: single protein
MC-38 = assay: Antitumor activity against mouse MC38 cells implanted in C57BL/6 mouse model assessed as tumor growth inhibition at 12 mg/kg, po BID measured after 12 days relative to control; assay type: functional; settings: MC-38, 288 h, time 12 day, read-out: TGI
in vivo [36] = settings: Beagle, dog, iv, 1 mg/kg
Description: Volume of distribution in Beagle dog at 1 mg/kg, iv

[37] = Toxicity in C57BL/6 mouse implanted with mouse MC38 cells assessed as effect on body weight loss at high dose, po BID measured after 12 days; assay type: organism-based; settings: in vivo, 288 h, time 12 day
[38] = target: Tyrosine-protein kinase Fyn (Homo sapiens, UniProt P06241); assay: Inhibition of FYN (unknown origin)
[39] = target: Serine/threonine-protein kinase PAK 2 (Homo sapiens, UniProt Q13177); assay: Inhibition of PAK2 (unknown origin)
[40] = Inhibition of ABL (unknown origin); set-up: species or system Homo sapiens
[41] = Genotoxicity in Salmonella typhimurium TA1535 incubated for 48 to 72 hrs in presence of S9 fraction by AMES test; assay type: toxicity, subcellular; settings: salmonella enterica subsp. enterica serovar typhimurium, time 48-72 hrs
Cytochrome P450 3A4 = Cytochrome P450 3A4 (Homo sapiens, UniProt P08684); assay: Inhibition of CYP3A4 in human liver microsomes using midazolam 1-hydroxylation as substrate incubated for 10 mins in presence of NADPH by LC-MS/MS analysis; assay type: ADME, Microsome

Serine/threonine-protein kinase PAK 2, sequence (Q13177 whole entry): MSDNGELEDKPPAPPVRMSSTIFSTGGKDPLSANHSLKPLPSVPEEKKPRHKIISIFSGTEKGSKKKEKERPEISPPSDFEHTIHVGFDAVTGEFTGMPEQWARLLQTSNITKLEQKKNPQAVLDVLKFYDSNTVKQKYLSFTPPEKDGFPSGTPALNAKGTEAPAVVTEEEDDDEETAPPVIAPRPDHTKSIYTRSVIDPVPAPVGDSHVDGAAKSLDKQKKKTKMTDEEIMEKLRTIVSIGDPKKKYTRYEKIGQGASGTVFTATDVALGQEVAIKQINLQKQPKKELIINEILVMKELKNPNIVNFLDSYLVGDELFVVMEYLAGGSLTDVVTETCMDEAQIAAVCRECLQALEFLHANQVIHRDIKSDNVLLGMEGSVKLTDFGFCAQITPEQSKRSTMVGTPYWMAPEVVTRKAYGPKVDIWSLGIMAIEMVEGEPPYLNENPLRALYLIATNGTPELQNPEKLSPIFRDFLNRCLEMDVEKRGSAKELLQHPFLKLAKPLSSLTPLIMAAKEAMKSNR
Tyrosine-protein kinase JAK3, sequence (P52333 whole entry): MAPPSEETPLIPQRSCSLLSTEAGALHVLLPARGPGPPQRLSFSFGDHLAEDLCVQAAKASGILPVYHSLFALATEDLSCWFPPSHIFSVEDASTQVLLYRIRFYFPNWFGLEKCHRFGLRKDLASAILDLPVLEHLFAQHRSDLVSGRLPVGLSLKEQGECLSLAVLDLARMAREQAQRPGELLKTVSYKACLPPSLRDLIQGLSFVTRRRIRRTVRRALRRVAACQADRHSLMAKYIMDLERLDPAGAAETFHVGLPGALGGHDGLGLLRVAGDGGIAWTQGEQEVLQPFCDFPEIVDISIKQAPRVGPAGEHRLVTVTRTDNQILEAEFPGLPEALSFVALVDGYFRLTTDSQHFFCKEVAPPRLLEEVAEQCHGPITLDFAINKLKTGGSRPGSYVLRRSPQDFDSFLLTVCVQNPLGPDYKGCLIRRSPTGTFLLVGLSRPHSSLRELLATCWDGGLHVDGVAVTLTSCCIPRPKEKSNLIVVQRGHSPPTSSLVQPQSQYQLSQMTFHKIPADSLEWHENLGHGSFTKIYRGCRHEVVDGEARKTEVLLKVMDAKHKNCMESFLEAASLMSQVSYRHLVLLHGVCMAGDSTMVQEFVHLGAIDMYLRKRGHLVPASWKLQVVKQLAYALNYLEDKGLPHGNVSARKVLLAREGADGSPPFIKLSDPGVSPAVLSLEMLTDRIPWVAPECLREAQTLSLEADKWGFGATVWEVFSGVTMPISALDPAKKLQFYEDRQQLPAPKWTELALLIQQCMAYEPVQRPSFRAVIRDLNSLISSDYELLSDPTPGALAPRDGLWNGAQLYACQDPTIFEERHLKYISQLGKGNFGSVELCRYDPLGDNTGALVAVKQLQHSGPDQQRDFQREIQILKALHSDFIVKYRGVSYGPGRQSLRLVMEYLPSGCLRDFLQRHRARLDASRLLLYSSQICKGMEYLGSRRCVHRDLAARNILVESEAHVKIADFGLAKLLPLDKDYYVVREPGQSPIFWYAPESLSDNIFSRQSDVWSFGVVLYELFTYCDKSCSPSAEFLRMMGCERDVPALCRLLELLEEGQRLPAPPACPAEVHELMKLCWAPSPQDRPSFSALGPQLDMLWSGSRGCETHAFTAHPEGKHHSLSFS
Serine/threonine-protein kinase TAO2, sequence (Q9UL54 whole entry): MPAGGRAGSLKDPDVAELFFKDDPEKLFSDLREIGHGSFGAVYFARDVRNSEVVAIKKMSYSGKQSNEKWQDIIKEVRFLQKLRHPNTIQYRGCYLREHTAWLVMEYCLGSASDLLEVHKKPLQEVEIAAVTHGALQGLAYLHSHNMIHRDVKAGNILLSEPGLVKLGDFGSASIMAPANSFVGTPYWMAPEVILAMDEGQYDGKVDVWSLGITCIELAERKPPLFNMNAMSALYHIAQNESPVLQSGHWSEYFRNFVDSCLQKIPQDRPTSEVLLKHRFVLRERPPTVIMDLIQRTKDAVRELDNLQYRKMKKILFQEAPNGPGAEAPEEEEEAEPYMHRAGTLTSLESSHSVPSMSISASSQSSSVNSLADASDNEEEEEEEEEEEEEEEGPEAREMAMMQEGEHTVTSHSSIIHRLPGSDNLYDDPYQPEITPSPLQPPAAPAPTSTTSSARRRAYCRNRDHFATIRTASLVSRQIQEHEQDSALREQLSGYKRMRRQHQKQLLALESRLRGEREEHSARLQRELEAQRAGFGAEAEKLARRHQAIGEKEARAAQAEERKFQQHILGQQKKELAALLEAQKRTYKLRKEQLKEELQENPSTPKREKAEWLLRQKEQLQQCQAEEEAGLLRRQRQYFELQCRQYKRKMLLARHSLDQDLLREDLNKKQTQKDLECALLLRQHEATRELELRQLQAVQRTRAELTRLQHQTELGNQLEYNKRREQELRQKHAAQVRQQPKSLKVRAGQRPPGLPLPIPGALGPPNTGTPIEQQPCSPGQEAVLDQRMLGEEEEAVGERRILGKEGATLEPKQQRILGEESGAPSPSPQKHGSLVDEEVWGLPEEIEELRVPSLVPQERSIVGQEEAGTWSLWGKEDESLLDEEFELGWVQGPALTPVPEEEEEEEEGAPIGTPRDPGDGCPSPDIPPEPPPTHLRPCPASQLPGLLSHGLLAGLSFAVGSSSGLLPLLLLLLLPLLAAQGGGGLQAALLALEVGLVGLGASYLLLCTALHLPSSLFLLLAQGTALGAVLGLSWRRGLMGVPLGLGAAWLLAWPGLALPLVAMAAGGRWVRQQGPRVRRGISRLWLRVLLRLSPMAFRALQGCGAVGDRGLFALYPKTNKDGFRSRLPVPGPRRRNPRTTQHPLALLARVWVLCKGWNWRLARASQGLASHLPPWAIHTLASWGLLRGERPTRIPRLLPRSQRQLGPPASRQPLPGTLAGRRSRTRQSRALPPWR
Tyrosine-protein kinase Blk, sequence (P51451 whole entry): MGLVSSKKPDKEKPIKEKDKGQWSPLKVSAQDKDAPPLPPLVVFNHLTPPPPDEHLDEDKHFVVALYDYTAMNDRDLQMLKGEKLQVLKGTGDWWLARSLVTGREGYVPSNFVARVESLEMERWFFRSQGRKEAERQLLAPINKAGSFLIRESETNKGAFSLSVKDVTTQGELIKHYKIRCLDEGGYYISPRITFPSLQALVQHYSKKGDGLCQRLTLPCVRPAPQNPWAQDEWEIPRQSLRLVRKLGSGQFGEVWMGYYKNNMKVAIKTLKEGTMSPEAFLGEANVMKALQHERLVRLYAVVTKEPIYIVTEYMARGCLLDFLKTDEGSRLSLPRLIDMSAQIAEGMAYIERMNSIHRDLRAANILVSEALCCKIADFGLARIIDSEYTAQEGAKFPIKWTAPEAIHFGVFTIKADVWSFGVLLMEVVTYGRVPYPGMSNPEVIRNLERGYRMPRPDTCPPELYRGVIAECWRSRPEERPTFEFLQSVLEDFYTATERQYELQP
Interleukin-1 receptor-associated kinase 4, sequence (Q9NWZ3 whole entry): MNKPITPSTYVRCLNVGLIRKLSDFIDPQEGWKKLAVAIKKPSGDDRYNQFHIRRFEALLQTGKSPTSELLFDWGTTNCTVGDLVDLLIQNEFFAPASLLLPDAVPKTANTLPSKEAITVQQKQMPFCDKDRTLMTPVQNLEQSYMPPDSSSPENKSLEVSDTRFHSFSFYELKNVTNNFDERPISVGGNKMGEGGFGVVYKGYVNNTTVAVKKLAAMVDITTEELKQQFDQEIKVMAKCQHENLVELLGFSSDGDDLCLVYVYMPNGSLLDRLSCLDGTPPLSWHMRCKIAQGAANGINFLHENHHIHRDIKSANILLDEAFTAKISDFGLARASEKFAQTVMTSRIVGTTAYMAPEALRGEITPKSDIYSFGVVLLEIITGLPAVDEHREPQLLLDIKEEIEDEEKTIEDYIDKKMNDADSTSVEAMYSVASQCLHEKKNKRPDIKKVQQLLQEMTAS
Tyrosine-protein kinase JAK2, sequence (O60674 whole entry, the tested form may be a part): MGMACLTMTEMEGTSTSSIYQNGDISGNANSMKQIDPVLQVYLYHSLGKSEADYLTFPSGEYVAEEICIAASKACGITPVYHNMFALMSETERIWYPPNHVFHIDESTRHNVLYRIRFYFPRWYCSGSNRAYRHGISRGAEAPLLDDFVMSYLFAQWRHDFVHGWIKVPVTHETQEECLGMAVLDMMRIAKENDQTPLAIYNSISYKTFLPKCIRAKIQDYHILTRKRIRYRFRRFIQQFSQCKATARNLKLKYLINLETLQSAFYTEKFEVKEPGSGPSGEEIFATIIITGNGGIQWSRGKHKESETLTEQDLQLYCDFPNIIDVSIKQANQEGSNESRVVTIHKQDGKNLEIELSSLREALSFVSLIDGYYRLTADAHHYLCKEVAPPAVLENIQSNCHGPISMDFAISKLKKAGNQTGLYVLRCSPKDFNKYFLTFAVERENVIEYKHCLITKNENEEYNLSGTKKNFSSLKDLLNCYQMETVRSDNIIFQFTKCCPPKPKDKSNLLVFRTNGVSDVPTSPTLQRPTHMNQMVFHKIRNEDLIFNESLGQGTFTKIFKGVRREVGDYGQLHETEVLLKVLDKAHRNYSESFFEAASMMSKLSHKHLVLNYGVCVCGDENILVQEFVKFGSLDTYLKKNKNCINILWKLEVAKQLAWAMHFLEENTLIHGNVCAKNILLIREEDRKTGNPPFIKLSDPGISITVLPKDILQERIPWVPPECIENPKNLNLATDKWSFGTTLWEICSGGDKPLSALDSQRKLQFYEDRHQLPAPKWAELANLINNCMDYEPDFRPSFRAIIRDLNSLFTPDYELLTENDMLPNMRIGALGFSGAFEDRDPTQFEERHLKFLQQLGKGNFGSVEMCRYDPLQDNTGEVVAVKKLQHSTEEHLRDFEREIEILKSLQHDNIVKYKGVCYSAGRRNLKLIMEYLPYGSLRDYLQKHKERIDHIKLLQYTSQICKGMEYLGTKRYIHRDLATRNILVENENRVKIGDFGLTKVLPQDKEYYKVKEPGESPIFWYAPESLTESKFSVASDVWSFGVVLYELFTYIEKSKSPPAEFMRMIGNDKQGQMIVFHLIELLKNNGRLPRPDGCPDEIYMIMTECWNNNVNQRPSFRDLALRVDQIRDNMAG

SMILES: COc1cc(Nc2ccc3c(n2)CN(C)C32CCN(C3COC3)CC2)c(C(N)=O)nc1-c1cccc2c1ncn2C
- IC50 [1]: 1.74 µM
- clearance (in vivo [2]): 11.4 mL/min/kg
- IC50 [3]: 0.185 µM
- half-life [4]: 3.42 h
- EC50 [5]: 0.0388 µM
- IC50 [6]: > 10 µM
- AUC/dose [7]: 563 ng·h/mL
- IC50 [8]: 3.5 µM
- Activity [9]: Non-toxic
- Vd (in vivo [10]): 5.07 L/kg
- IC50 [11]: 0.521 µM
- AUC/dose [12]: 408.8 ng·h/mL
- Activity [13]: Non-toxic
- solubility at 24 h [14]: 18.9 µM (≈ 10.5 µg/mL)
- fraction unbound at 4 h, 2 µM [15]: 0.079
- IC50 [16]: > 10 µM
- solubility at 24 h [17]: 134 µM (≈ 74.3 µg/mL)
- AUC/dose [18]: 593.6 ng·h/mL
- clearance (in vivo [19]): 9.67 mL/min/kg
- IC50 [20]: 0.0199 µM
- TGI (CT26 [21]): 94.3%
- IC50 [22]: 0.5 µM
- IC50 [23]: 1.89 µM
- clearance (in vivo [24]): 11.4 mL/min/kg
- Activity [25]: Non-toxic
- Activity [26]: Non-toxic
- TGI (CT26 [27]): 64.3%
- IC50 [28]: > 10 µM
- Activity [29]: Non-toxic
- IC50 [30]: > 10 µM
- IC50 [31]: 5.14 µM
- Vd (in vivo [32]): 2.2 L/kg
- IC50 [33]: > 10 µM
- IC50 [34]: > 10 µM
- IC50 [35]: < 0.00051 µM
- inhibition in vivo at 12 mg/kg (MC-38): 59.4%
- Vd (in vivo [36]): 5.58 L/kg
- Activity [37]: Non-toxic
- IC50 [38]: > 10 µM
- IC50 [39]: > 10 µM
- IC50 [40]: 4.42 µM
- Activity [41]: Non-toxic
- IC50 (Cytochrome P450 3A4): > 50 µM
